The values that follow are results of earlier work, collected in US20100233259A1, “DOSAGE FORM OF ROPINIROLE” (priority 2008, published 2010).

For the data set the following is noted: in vivo.

For the compound `CCCN(CCC)CCc1cccc2c1CC(=O)N2` [Ropinirole], the half life is 5 to 6 h.
